The target of one assay is T1, human CA-IX (Homo sapiens, UniProt Q16790).
T1 construct: purchased Acro CA9-H82E3
The assay is described as follows: Surface Plasmon Resonance (SPR) binding kinetics to recombinant human CA-IX (Biacore 8K, single-cycle kinetics, 1:1 binding model). In a few lines: (§1)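 Kinetics are measured at 25° C against streptavidin-captured CA-IX or CA-XII (1200-1800 RU) in PBS-P+ buffer, pH 7.4, containing 1% DMSO. Nine analyte concentrations span 100-0.39 nM, with 1200 s dissociation.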
On the technique in general: Surface plasmon resonance follows binding to a sensor surface in real time, without labels.

For a further assay, the target named is T2, human CA-XII (Homo sapiens, UniProt O43570).
T2 construct: purchased Creative BioMart CA12-261H
T2 sequence (O43570 25-354): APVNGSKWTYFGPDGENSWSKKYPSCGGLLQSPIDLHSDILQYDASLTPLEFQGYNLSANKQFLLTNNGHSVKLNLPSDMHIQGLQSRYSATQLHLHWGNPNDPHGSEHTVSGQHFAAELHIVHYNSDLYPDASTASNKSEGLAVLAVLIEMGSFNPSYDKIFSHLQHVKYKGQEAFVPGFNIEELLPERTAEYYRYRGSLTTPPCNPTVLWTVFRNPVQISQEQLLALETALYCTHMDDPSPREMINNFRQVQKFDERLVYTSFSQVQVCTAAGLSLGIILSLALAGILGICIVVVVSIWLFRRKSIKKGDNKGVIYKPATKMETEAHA
As to the kind of experiment: Surface Plasmon Resonance (SPR) binding kinetics to recombinant human CA-XII (Biacore 8K, single-cycle kinetics, 1:1 binding model). In short, it runs like this:
as §1

Where [1] appears, read: Chelated Metal: None; SPR, 25° C., pH 7.4; read-out: CAIX KD.
[2] abbreviates: Chelated Metal: None, 25° C., pH 7.4, read-out: CAXII KD.
Where [3] appears, read: Chelated Metal: Lu-175; SPR, 25° C., pH 7.4; read-out: CAIX KD.
Where [4] appears, read: Chelated Metal: Lu-175, 25° C., pH 7.4, read-out: CAXII KD.
[5] abbreviates: read-out: CAIX KD; Chelated Metal: Lu-175; SPR, 25° C., pH 7.4.
Where [6] appears, read: read-out: CAXII KD, Chelated Metal: Lu-175, 25° C., pH 7.4.

Each structure is given as a SMILES string. Where two headings read alike, the source gives them in different places.

In general, Kd refers to a measure of binding affinity in units of concentration. `CC(CCC(=O)N[C@@H](CC(=O)N[C@@H](CC(=O)N1CCN(C(=O)CCOCCOCCOCCOCCN(CCOCCOCCOCCOCCC(=O)N2CCN(C(=O)C[C@H](NC(=O)C[C@H](NC(=O)CCC(C)(c3ccc(O)cc3)c3ccc(O)cc3)C(=O)O)C(=O)O)[C@H](C(=O)NCCn3cc(C45CC(C(=O)Nc6nnc(S(N)(=O)=O)s6)(C4)C5)nn3)C2)C(=O)CNC(=O)CN2CCN(CC(=O)O)CCN(CC(=O)O)CCN(CC(=O)O)CC2)C[C@H]1C(=O)NCCn1cc(C23CC(C(=O)Nc4nnc(S(N)(=O)=O)s4)(C2)C3)nn1)C(=O)O)C(=O)O)(c1ccc(O)cc1)c1ccc(O)cc1` [Compound 131.2]: the Kd on human CA-IX (setting [1]) and at human CA-XII (setting [2]) was < 1 nM each time.

As for `CC(CCCC(=O)N1CCOC[C@H]1C(=O)N[C@@H](CC(=O)N1CCN(C(=O)CCOCCOCCOCCOCCN(CCOCCOCCOCCOCCC(=O)N2CCN(C(=O)C[C@H](NC(=O)[C@@H]3COCCN3C(=O)CCCC(C)(c3ccc(O)cc3)c3ccc(O)cc3)C(=O)O)[C@@H](C(=O)NCCn3cc(C45CC(C(=O)Nc6nnc(S(N)(=O)=O)s6)(C4)C5)nn3)C2)C(=O)CNC(=O)CN2CCN(CC(=O)O)CCN(CC(=O)O)CCN(CC(=O)O)CC2)C[C@@H]1C(=O)NCCn1cc(C23CC(C(=O)Nc4nnc(S(N)(=O)=O)s4)(C2)C3)nn1)C(=O)O)(c1ccc(O)cc1)c1ccc(O)cc1.[Lu+3]` [Compound 131.3], the Kd on human CA-IX (setting [3]) and on human CA-XII (setting [4]) was < 1 nM each time.

With `CC(CCC(=O)N[C@@H](CC(=O)N[C@@H](CC(=O)N1CCN(C(=O)CCC(CCC(=O)N2CCN(C(=O)C[C@H](NC(=O)C[C@H](NC(=O)CCC(C)(c3ccc(O)cc3)c3ccc(O)cc3)C(=O)O)C(=O)O)[C@H](C(=O)NCCn3cc(C45CC(C(=O)Nc6nnc(S(N)(=O)=O)s6)(C4)C5)nn3)C2)NC(=O)CN2CCN(CC(=O)O)CCN(CC(=O)O)CCN(CC(=O)O)CC2)C[C@H]1C(=O)NCCn1cc(C23CC(C(=O)Nc4nnc(S(N)(=O)=O)s4)(C2)C3)nn1)C(=O)O)C(=O)O)(c1ccc(O)cc1)c1ccc(O)cc1` (stereo partly shown) [Compound 131.4], the Kd at human CA-IX (setting [1]) and at human CA-XII (setting [2]) was < 1 nM each time. The “Ratio (CAXII/CAIX)” value on human CA-IX (KD ratio CAXII/CAIX; Chelated Metal: None) was “* (1 < * < 5)”.

With `N[C@@H](CC(=O)N[C@@H](CC(=O)N1CCN(C(=O)CCOCCOCCOCCOCCN(CCOCCOCCOCCOCCC(=O)N2CCN(C(=O)C[C@H](NC(=O)C[C@H](N)C(=O)O)C(=O)O)[C@H](C(=O)NCCn3cc(C45CC(C(=O)Nc6nnc(S(N)(=O)=O)s6)(C4)C5)nn3)C2)C(=O)CNC(=O)CN2CCN(CC(=O)O)CCN(CC(=O)O)CCN(CC(=O)O)CC2)C[C@H]1C(=O)NCCn1cc(C23CC(C(=O)Nc4nnc(S(N)(=O)=O)s4)(C2)C3)nn1)C(=O)O)C(=O)O.[Lu+3]` [Compound 131.5], the Kd at human CA-IX (setting [3]) and on human CA-XII (setting [4]) was < 1 nM throughout.

For the compound `CC(CCCC(=O)N1CCOC[C@H]1C(=O)N[C@@H](CC(=O)N1CCN(C(=O)CCOCCOCCOCCOCCN(CCOCCOCCOCCOCCC(=O)N2CCN(C(=O)C[C@H](NC(=O)[C@@H]3COCCN3C(=O)CCCC(C)(c3ccc(O)cc3)c3ccc(O)cc3)C(N)=O)[C@@H](C(=O)NCCn3cc(C45CC(C(=O)Nc6nnc(S(N)(=O)=O)s6)(C4)C5)nn3)C2)C(=O)CNC(=O)CN2CCN(CC(=O)O)CCN(CC(=O)O)CCN(CC(=O)O)CC2)C[C@@H]1C(=O)NCCn1cc(C23CC(C(=O)Nc4nnc(S(N)(=O)=O)s4)(C2)C3)nn1)C(N)=O)(c1ccc(O)cc1)c1ccc(O)cc1.[Lu+3]` [Compound 131.6], the figures for the Kd at human CA-IX (setting [3]) and at human CA-XII (setting [4]) were < 1 nM and 1 to 2.5 nM, respectively.

On to `CC(CCCC(=O)N1CCC(C(N)=O)(C(=O)NCC(=O)NC2CCN(C(=O)CCOCCOCCOCCOCCN(CCOCCOCCOCCOCCC(=O)N3CCC(NC(=O)CNC(=O)C4(C(N)=O)CCN(C(=O)CCCC(C)(c5ccc(O)cc5)c5ccc(O)cc5)CC4)C(C(=O)NCCn4cc(C56CC(C(=O)Nc7nnc(S(N)(=O)=O)s7)(C5)C6)nn4)C3)C(=O)CNC(=O)CN3CCN(CC(=O)O)CCN(CC(=O)O)CCN(CC(=O)O)CC3)CC2C(=O)NCCn2cc(C34CC(C(=O)Nc5nnc(S(N)(=O)=O)s5)(C3)C4)nn2)CC1)(c1ccc(O)cc1)c1ccc(O)cc1.[Lu+3]` (stereo not shown) [Compound 131.7], for which the Kd was < 1 nM on human CA-IX (setting [3]) and 1 to 2.5 nM on human CA-XII (setting [4]).

Regarding `CC(CCCC(=O)N1CCC(C(N)=O)(C(=O)NCC(=O)N2CCN(C(=O)CCOCCOCCOCCOCCN(CCOCCOCCOCCOCCC(=O)N3CCN(C(=O)CNC(=O)C4(C(N)=O)CCN(C(=O)CCCC(C)(c5ccc(O)cc5)c5ccc(O)cc5)CC4)[C@H](C(=O)NCCn4cc(C56CC(C(=O)Nc7nnc(S(N)(=O)=O)s7)(C5)C6)nn4)C3)C(=O)CNC(=O)CN3CCN(CC(=O)O)CCN(CC(=O)O)CCN(CC(=O)O)CC3)C[C@H]2C(=O)NCCn2cc(C34CC(C(=O)Nc5nnc(S(N)(=O)=O)s5)(C3)C4)nn2)CC1)(c1ccc(O)cc1)c1ccc(O)cc1.[Lu+3]` [Compound 131], the results for the Kd on human CA-IX (setting [5]) and on human CA-XII (setting [6]) were < 1 nM and 2.5 to 10 nM, respectively.

As to `NS(=O)(=O)c1nnc(NC(=O)C23CCC(c4cn(CCNC(=O)[C@@H]5CN(C(=O)CCCc6ccc(O)cc6)CCN5C(=O)CC[C@H](NC(=O)C[C@H](NC(=O)CN5CCN(CC(=O)O)CCN(CC(=O)O)CCN(CC(=O)O)CC5)C(=O)O)C(=O)O)nn4)(CC2)CC3)s1.[Lu+3]` [Compound 132], the Kd on human CA-IX (setting [5]) is < 1 nM; at human CA-XII (setting [6]), 1 to 2.5 nM.

On to `CC(C)(CCCC(=O)N1CCC(C(N)=O)(C(=O)NCC(=O)N2CCN(C(=O)CN3CCN(CC(=O)O)CCN(CC(=O)O)CCN(CC(=O)O)CC3)C[C@H]2C(=O)NCCn2cc(C34CC(C(=O)Nc5nnc(S(N)(=O)=O)s5)(C3)C4)nn2)CC1)c1ccc(O)cc1.[Lu+3]` [Compound 133], for which the dissociation constant Kd on human CA-IX (setting [5]) was < 1 nM; at human CA-XII (setting [6]), > 10 nM.

In the case of `CC(CCCC(=O)N1CCC(C(N)=O)(C(=O)NCC(=O)NC2(C(=O)N[C@@H](Cn3cc(C45CC(C(=O)Nc6nnc(S(N)(=O)=O)s6)(C4)C5)nn3)C(=O)O)CCN(C(=O)CN3CCN(CC(=O)O)CCN(CC(=O)O)CCN(CC(=O)O)CC3)CC2)CC1)(c1ccc(O)cc1)c1ccc(O)cc1.[Lu+3]` [Compound 134], the Kd was < 1 nM at human CA-IX (setting [5]) and > 10 nM at human CA-XII (setting [6]).

Turning to `CC(CCCC(=O)N1CCC(C(N)=O)(C(=O)NCC(=O)NC2(C(=O)NCCn3nnc(C45CC(C(=O)Nc6nnc(S(N)(=O)=O)s6)(C4)C5)c3C(=O)O)CCN(C(=O)CN3CCN(CC(=O)O)CCN(CC(=O)O)CCN(CC(=O)O)CC3)CC2)CC1)(c1ccc(O)cc1)c1ccc(O)cc1.[Lu+3]` [Compound 135], the Kd on human CA-IX (setting [5]) is < 1 nM; on human CA-XII (setting [6]), > 10 nM.

For `CC(CCCC(=O)N1CCC(C(N)=O)(C(=O)NCC(=O)NC2(C(=O)NCCn3nnc(C45CC(C(=O)Nc6nnc(S(N)(=O)=O)s6)(C4)C5)c3C(N)=O)CCN(C(=O)CN3CCN(CC(=O)O)CCN(CC(=O)O)CCN(CC(=O)O)CC3)CC2)CC1)(c1ccc(O)cc1)c1ccc(O)cc1.[Lu+3]` [Compound 136], the Kd at human CA-IX (setting [5]) was < 1 nM; at human CA-XII (setting [6]), > 10 nM.

(Values after US20260325685A1, “Radiopharmaceutical Compositions Targeting Carbonic Anhydrase IX and Uses Thereof” (RayzeBio, Inc., priority 2023, published 2026).)
